Each block holds one compound with its values, some of them ahead of it.
Experiments:
[1] = Long-term stability purity test (total impurities by HPLC); format: physicochemical; conditions: relative humidity 60±5%; for Total impurities content: HPLC
Description: Crystalline Form A of the compound of Formula 1 prepared in Example 1 was stored under long-term storage conditions (25±2° C., and Relative humidity: 60±5%). Samples were taken after 3 months, 6 months, 9 months, 12 months, 18 months, and even 24 months from the onset of the storage to measure total impurities content by high performance liquid chromatography (HPLC).

[2] = test system: poly(ADP-ribose) polymerase (PARP); conditions: as disclosed in US'973; cited from earlier work
[3] = Storage behaviour of the amorphous form; format: physicochemical
Source text: The obtained amorphous form readily absorbed water during the storage, i.e., it was hygroscopic, whereby the color turned yellow. It was thus confirmed that the amorphous form was not suitable for use as a medicinal drug substance.

Total impurities content ([1]; 3 months, 25±2° C.): 0.15% wt %
Total impurities content ([1]; 6 months, 25±2° C.): 0.16% wt %
Total impurities content ([1]; 9 months, 25±2° C.): 0.15% wt %
Total impurities content ([1]; 12 months, 25±2° C.): 0.14% wt %
Total impurities content ([1]; 18 months, 25±2° C.): 0.19% wt %
Stability under long-term storage conditions (in words) ([1]; 25±2° C., up to 24 months): high stability
Total impurities content ([1]; Initial, long-term storage 25±2° C.): 0.14% wt %
SMILES: Cl.O=C(c1cc(Cc2n[nH]c(=O)c3ccccc23)ccc1F)N1CC(CNC2CC2)C1 [Crystalline Form A, 4-[3-(3-[(cyclopropylamino)methyl]azetidine-1-carbonyl)-4-fluorobenzyl]phthalazin-1(2H)-one hydrochloride]

SMILES: Cl.O=C(c1cc(Cc2n[nH]c(=O)c3ccccc23)ccc1F)N1CC(CNC2CC2)C1 [compound of Formula 1, 4-[3-(3-[(cyclopropylamino)methyl]azetidine-1-carbonyl)-4-fluorobenzyl]phthalazin-1(2H)-one hydrochloride]
PARP inhibitory activity [2]: PARP inhibitory activity

Colour change during storage [3]: turned yellow
Water absorption during storage (hygroscopicity) [3]: hygroscopic
SMILES: Cl.O=C(c1cc(Cc2n[nH]c(=O)c3ccccc23)ccc1F)N1CC(CNC2CC2)C1 [amorphous form, 4-[3-(3-[(cyclopropylamino)methyl]azetidine-1-carbonyl)-4-fluorobenzyl]phthalazin-1(2H)-one hydrochloride]
